From patent US12194039B2, “Methods of treating heart failure by administering omecamtiv mecarbil” (Cytokinetics, Inc., priority 2020, dated 2025)

Biological target: T1, CYP2C8 (Homo sapiens, UniProt P10632)
T1 sequence (P10632 1-490): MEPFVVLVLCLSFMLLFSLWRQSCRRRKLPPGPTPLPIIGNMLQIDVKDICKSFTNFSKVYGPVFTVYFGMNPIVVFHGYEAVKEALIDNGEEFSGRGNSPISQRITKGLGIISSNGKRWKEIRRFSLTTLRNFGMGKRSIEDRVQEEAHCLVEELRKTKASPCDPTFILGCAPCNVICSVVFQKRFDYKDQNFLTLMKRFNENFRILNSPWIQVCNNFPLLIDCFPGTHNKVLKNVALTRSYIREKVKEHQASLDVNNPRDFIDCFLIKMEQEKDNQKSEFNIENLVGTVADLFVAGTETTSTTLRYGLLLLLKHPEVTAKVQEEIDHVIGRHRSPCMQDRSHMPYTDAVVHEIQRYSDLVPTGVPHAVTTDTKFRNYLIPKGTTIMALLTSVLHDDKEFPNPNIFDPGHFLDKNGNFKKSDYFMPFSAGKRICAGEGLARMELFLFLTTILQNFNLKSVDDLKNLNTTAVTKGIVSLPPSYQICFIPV
Experiment: In vitro inhibition by OM
Type: in vitro ADME
Settings: result in words

For `COC(=O)N1CCN(Cc2cccc(NC(=O)Nc3ccc(C)nc3)c2F)CC1` [omecamtiv mecarbil], the “Inhibition of CYP2C8” value was “inhibitor”.
